Measurements reported in patent US5010083A, “2,6-methano-1,3-benzodiazocine compounds which have useful pharmaceutical utility” (priority 1989, dated 1991).
Counter-ions that a name gives are not always drawn.

Biological target: T1, brain acetylcholinesterase (AChE) (Rattus norvegicus, UniProt P37136)
T1 construct: corpora striata dissected free, weighed and homogenized in 19 volumes; from tissue; host or cells: corpora striata of male Wistar rats, whole homogenate
T1 sequence (P37136 32-614): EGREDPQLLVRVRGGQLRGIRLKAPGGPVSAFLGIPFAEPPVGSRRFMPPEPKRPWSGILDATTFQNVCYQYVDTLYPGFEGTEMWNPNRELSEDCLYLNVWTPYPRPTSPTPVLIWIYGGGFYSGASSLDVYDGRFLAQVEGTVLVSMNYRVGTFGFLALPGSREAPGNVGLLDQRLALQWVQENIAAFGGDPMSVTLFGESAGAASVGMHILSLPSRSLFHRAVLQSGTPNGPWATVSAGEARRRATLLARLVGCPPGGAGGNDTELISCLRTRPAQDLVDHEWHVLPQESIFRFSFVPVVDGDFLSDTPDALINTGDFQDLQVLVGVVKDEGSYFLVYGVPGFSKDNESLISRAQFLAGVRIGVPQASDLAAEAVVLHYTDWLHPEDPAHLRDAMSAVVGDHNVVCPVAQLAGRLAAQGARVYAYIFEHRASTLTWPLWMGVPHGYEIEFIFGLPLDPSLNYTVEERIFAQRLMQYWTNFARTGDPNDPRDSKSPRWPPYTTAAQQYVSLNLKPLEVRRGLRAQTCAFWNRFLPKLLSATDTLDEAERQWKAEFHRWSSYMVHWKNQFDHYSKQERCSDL
Assay: In Vitro Inhibition of Acetylcholinesterase Activity in Rat Striatum
Format: biochemical, rat (male Wistar)
Source text: Cholinesterases are found throughout the body, both in the brain and in serum. However, only brain acetylcholinesterase (AChE) distribution is correlated with central cholinergic innervation. […] We have determined in vitro inhibition of acetylcholinesterase activity in rat striatum according to the method described below.
The method described below was used in this invention for assaying anticholinesterase activity.
1. 0.05M Phosphate buffer, pH 7.2
(c) add (a) to (b) until pH reaches 7.2
(a) 9.9 mg 5,5-dithiobisnitrobenzoic acid (DTNB) (0.25 mM)
(b) 99 mg s-acetylthiocholine chloride (5 mM)
(c) q.s. to 100 ml with 0.05M phosphate buffer, pH 7.2 (reagent 1)
Male Wistar rats are decapitated, brains rapidly removed, corpora striata dissected free, weighed and homogenized in 19 volumes (approximately 7 mg protein/ml) of 0.05M phosphate buffer, pH 7.2 using a Potter-Elvehjem homogenizer. […]
Using the indicated instrument settings the ABA-100 automatically reads the color reaction and prints out the results in enzyme units after 15 minutes.
2. The enzyme activity can also be measured with a Gilford 250 spectrophotometer. […]
The uninhibited activity of the enzyme (tissue homogenate) is first determined. […] The reaction rate is determined by the slope of the recorded absorbance change. The actual rate (moles/liter/min) can be calculated as described in the following formula

SMILES | IC50 [µM]
CN1CCC2CC1N(C)c1ccc(OC(=O)NC3CCCCC3)cc12 (centres unmarked) [1,2,3,4,5,6-Hexahydro-1,3-dimethyl-2,6-methano-1,3-benzodiazocin-8-ol, cyclohexyl carbamate] | 10.7
CNC(=O)Oc1ccc2c(c1)C1CCN(C)C(C1)N2C (centres unmarked) [1,2,3,4,5,6-Hexahydro-1,3-dimethyl-2,6-methano-1,3-benzodiazocin-8-ol, methyl carbamate fumarate] | 0.058
